Test results: patent EP0409382A1, “Glutamic acid derivatives” (THE WELLCOME FOUNDATION LIMITED, priority 1989, dated 1991)

Test system: MCF-7 breast adenocarcinoma
Assay: Cell culture cytotoxicity assay (MTT dye reduction), inhibition of cell growth
Assay type: cell-based, Human
Conditions: for IC50: MCF7, Anti-tumour Activity Human Breast Adenocarcinoma Cells, MCF-7, 72 hours incubation, medium with 10 nM calcium leucovorin as folate source, read-out: IC₅₀; for inhibiting the growth of MCF-7 cells: 72 hours, MTT dye reduction, result in words
Method: Cells and Medium: MCF-7 breast adenocarcinoma, obtained from the American Type Culture Collection (ATCC) are grown in RPMI 1640 medium supplemented with 10 nM calcium leucovorin instead of folic acid as the folate source; 10% dialyzed fetal calf serum, penicillin, streptomycin and sodium pyruvate (110 µg/ml).
Cytotoxicity Assay: Cells are seeded into 96 well plates using a Perkin Elmer Pro/pette. MCF-7 cells are seeded at 15,000 cells per well in 150 µl of medium and each concentration was assayed in triplicate. Cultures were incubated for 72 hours in a 37^o humidified incubator at5% CO₂. Inhibition of cell growth was measured using the MTT dye reduction assay.
MTT Dye Reduction Assay: Cell dilutions for a standard curve were prepared from a 72 hour log-phase culture. Serial dilutions were seeded in triplicate in 96 well plates and incubated at 37 for 1 hour. MTT (3-(4,5-dimethylthiazol-2-yl)-2,5-diphenyltetrazolium bromide) was dissolved in phosphate buffered saline at 5 mg/ml and sonicated for 30 seconds. Using the Perkin Elmer Pro/pipette, […] of medium was removed and 100 µl of MTT added to the wells of the standard curve and test plates. Suspension cultures were spun for 5 minutes at 1000 rpm before removing medium from the wells. Plates were incubated for 1 hour at 37^o on a platform shaker. Following this incubation, 100 µl of medium was removed from the wells and 100 µl of dimethylsulphoxide added to each well. The plates were sonicated for approximately 10 seconds to solubilize the precipitated formazan dye. The absorbance of each well was measured using a Titertek Multiskan MC microtiter plate reader at 570 nm with a reference wavelength of 750 nm.

| Compound | IC50 | inhibiting the growth of MCF-7 cells |
| --- | --- | --- |
| Nc1nc(N)c(CCCSc2ccc(C(=O)N[C@@H](CCC(=O)O)C(=O)O)cc2)c(=O)[nH]1 [Example 1F, N-[4-[[3-(2,4-Diamino-1,6-dihydro-6-oxo-5-pyrimidinyl)propyl]thio]benzoyl]-L-glutamic acid] | 23 nM | active |
| Nc1nc(N)c(CCCOc2ccc(C(=O)N[C@@H](CCC(=O)O)C(=O)O)cc2)c(=O)[nH]1 [Example 2E, N-[4-[3-(2,4-Diamino-1,6-dihydro-6-oxo-5-pyrimidinyl)propoxy]benzoyl]-L-glutamic acid] | 85 nM | active |
